Test results published in publication PMC8941652 (European journal of medicinal chemistry, 2022).
Like-named read-outs stand apart in the source and are kept apart here.

What was measured:
[1] = tested on: Mycobacterium tuberculosis H37Rv; format: cell-based; details: for MIC: H37Rv, 7H9 liquid medium, at least 90% growth inhibition, 10 days
[2] = format: in vivo, CD-1 female mice; details: p.o. 25 mg/kg, CMC/Tween80 suspension, compared with parent PAS
[3] = tested on: Drug susceptible Mtb strains; experiment: microbe, parasite or virus in culture; format: cell-based; details: Mycobacterium tuberculosis
[4] = tested on: Mycobacterium tuberculosis; details: cited from earlier work
[5] = p.o. 25 mg/kg

CC(C)OC(=O)c1ccc(N)cc1O [Compound 5, Isopropyl 4-amino-2-hydroxybenzoate]
MIC [1]: abolished activity

CC(C)(C)C(=O)OCOC(=O)c1ccc(N)cc1O [Compound 6, (Pivaloyloxy)methyl 4-amino-2-hydroxybenzoate]
oral bioavailability of PAS released from the suspension of prodrug [2]: significantly lower than the parent PAS

Nc1cc(O)c(C(=O)O)cc1F [Compound 11, 4-Amino-5-fluoro-2-hydroxybenzoic acid]
MIC [3]: 6.3 to 25 µM | MIC ([3]; read-out: MICs against the drug susceptible and MDR strains): 6.3 to 50 µg/mL

CNc1ccc(C(=O)O)c(O)c1 [Compound 14, 2-Hydroxy-4-(methylamino)benzoic acid]
MIC [1]: inactive | antitubercular potency relative to PAS [4]: nearly equipotent to PAS

[N-]=[N+]=Nc1ccc(C(=O)O)c(O)c1 [Compound 15, 4-Azido-2-hydroxybenzoic acid]
loss of activity compared to PAS ([1]; H37Rv MIC): ~200 fold | MIC [1]: weakly active | formation of PAS in vivo [5]: no formation of PAS in vivo

CCOC(=O)c1cc(F)c(N)cc1O [Compound 16, Ethyl 4-amino-5-fluoro-2-hydroxybenzoate]
MIC [1]: inactive

CC(=O)NC[C@H]1CN(c2ccc(N3CCOCC3)c(F)c2)C(=O)O1 [Linezolid]
MIC [3]: 0.7 to 1.9 µM

Nc1ccc(C(=O)O)c(O)c1 [PAS, para-Aminosalicylic acid]
MIC [3]: 0.2 to 0.6 µM
